Read-outs that look alike come from different tables or passages of the source.
Columns and labels:
CWR22Rv1 = experiment: MTT cell viability, 7 days; assay type: cell-based; settings: 168 h
Procedure: (§1) Cells were seeded in 96-well plates and treated with drugs the next day. After 7 days, viability was assessed using MTT assay.
(§2) (C) Western blot analysis of AR and AR-V7 in C4-2B and C4-2B/MDVR cells after 48-hour ITRI-148 treatment. […] DEGs were determined relative to DMSO or pLKO.1 vector control. […] RPL13A was used for normalization. […] AR, AR-V7, and PSA expression in the drug-treated cells were detected across treatment timepoints.

PNT2 = experiment: MTT cell viability, 7 days; assay type: cell-based
Procedure: as §1, §2

LNCaP = experiment: MTT cell viability, 7 days; assay type: cell-based; settings: Homo sapiens, 168 h
Procedure: as §1, §2

LNCaP95 = experiment: MTT cell viability, 7 days; assay type: cell-based; settings: LNCaP-95, 168 h
Procedure: as §1, §2

PC3 = experiment: MTT cell viability, 7 days; assay type: cell-based
Procedure: as §1, §2

VCaP = experiment: MTT cell viability, 7 days; assay type: cell-based; settings: Homo sapiens, 168 h
Procedure: as §1, §2

C4-2B/MDVR = experiment: MTT cell viability, 7 days; assay type: cell-based; settings: 168 h
Procedure: as §1, §2

[1] = Toxicokinetic profiling in rats; assay type: in vivo; settings: Sprague-Dawley, rat, plasma, po; for AUC: read-out: AUC24
Procedure: (§3) Repeated-dose toxicity and toxicokinetic studies
Repeated-dose oral toxicity study and toxicokinetic (TK) profiling was conducted in Sprague-Dawley rats. ITRI-148 was administered once daily using oral gavage at doses of 100, 300, 600, and 1000 mg/kg/day for 7 consecutive days, followed by a 7-day recovery period. Each dose group comprised 3 animals designated for toxicokinetic (TK) analysis and 6 animals for dose-range finding (DRF) evaluation. Clinical observations, body weights, and food consumption were monitored daily throughout the dosing and recovery periods. After the first (Day 0) and last (Day 6) dosing, serial blood samples were collected at the pose-dose time points of 0.5, 1, 2, 4, 7, 24, 48 and 72 hours for TK profiling analysis. Plasma concentrations of ITRI-148 were quantified using a validated LC-MS/MS method. Analysis was performed using a Sciex QTrap 4000 mass spectrometer coupled with a Shimadzu LC system. The chromatographic separation was achieved on a C18 reverse-phase column with a gradient elution of acetonitrile and 0.1% formic acid in water. The lower limit of quantification (LLOQ) […]
was 5 ng/mL. All samples were analyzed in duplicate. […]
All procedures were conducted in compliance with institutional animal care and use guidelines. […]
(§4) Targeting androgen receptor and the variants by an orally bioavailable
(§5) Proteolysis Targeting Chimeras compound in castration resistant prostate cancer

[2] = Repeated-dose toxicity study: absolute organ weights; assay type: in vivo, Sprague-Dawley rats; settings: rats
Procedure: as §3
Repeated-dose oral toxicity study and toxicokinetic (TK) profiling was conducted in Sprague-Dawley rats. ITRI-148 was administered once daily using oral gavage at doses of 100, 300, 600, and 1000 mg/kg/day for 7 consecutive days, followed by a 7-day recovery period. Each dose group comprised 3 animals designated for toxicokinetic (TK) analysis and 6 animals for dose-range finding (DRF) evaluation. Clinical observations, body weights, and food consumption were monitored daily throughout the dosing and recovery periods. […]
All samples were analyzed in duplicate. Hematology and serum clinical chemistry analyses were performed on Day 7 (end of dosing) and Day 14 (end of recovery). At necropsy, organ weights (including heart, liver, kidney, spleen, thymus, and adrenal glands) were recorded, and gross pathological changes were examined. All procedures were conducted in compliance with institutional animal care and use guidelines. […]
as §4, §5

CWR22Rv1 cell = CWR22Rv1 cell viability after 3 days of 10 μM compound (linker screen); assay type: cell-based; settings: 72 h, CWR22Rv1, 10 μM compound
[3] = 100 mg/kg, 7-times repeated dosing 100 mg/kg
[4] = 100 mg/kg, single dosing 100 mg/kg
[5] = 300 mg/kg, 7-times repeated dosing 300 mg/kg
[6] = 300 mg/kg, single dosing 300 mg/kg
[7] = 600 mg/kg, 7-times repeated dosing 600 mg/kg
[8] = 600 mg/kg, single dosing 600 mg/kg
[9] = 1000 mg/kg, 7-times repeated dosing 1000 mg/kg
[10] = 1000 mg/kg, single dosing 1000 mg/kg
[11] = PO 100 mg/kg/day 7 days, Day 14 (recovery)
[12] = PO 300 mg/kg/day 7 days, Day 14 (recovery)
[13] = PO 600 mg/kg/day 7 days, Day 14 (recovery)
[14] = PO 1000 mg/kg/day 7 days, Day 7
[15] = PO 1000 mg/kg/day 7 days, Day 14 (recovery)

SMILES: O=C1CCC(N2C(=O)c3cccc(NCC(=O)N4CCC(N5CCC(C#Cc6ccc(C7CCN(C8=Nn9c(nnc9C(F)(F)F)CC8)CC7)cc6)CC5)CC4)c3C2=O)C(=O)N1 (stereo not shown) [ITRI-148]
- IC50 (CWR22Rv1): 2150 nM
- IC50 (PNT2; Homo sapiens, PNT2, MTT): > 10000 nM
- sensitivity of cell viability (PNT2; normal prostate epithelial cells (PNT2)): insensitive
- IC50 (LNCaP): 170 nM
- IC50 (LNCaP95): 1960 nM
- sensitivity of cell viability (PC3; AR-negative CRPC cells (PC3)): insensitive
- IC50 (PC3; Homo sapiens, PC-3, PC3, MTT): > 10000 nM
- IC50 (VCaP): 890 nM
- IC50 (C4-2B/MDVR): 1600 nM
- AUC(0-t) [1, 3]: 8750 ng·h/mL
- Cmax [1, 3]: 561 ± 62.1 ng/mL
- AUC [1, 3]: 8330 ng·h/mL
- AUC(0-t) [1, 4]: 9300 ng·h/mL
- Cmax [1, 4]: 466 ± 13.6 ng/mL
- AUC [1, 4]: 7670 ng·h/mL
- AUC(0-t) [1, 5]: 20500 ng·h/mL
- Cmax [1, 5]: 1050 ng/mL
- AUC [1, 5]: 17000 ng·h/mL
- AUC(0-t) [1, 6]: 20100 ng·h/mL
- Cmax [1, 6]: 659 ± 184 ng/mL
- AUC [1, 6]: 13000 ng·h/mL
- AUC(0-t) [1, 7]: 35200 ng·h/mL
- Cmax [1, 7]: 1440 ng/mL
- AUC [1, 7]: 25200 ng·h/mL
- AUC(0-t) [1, 8]: 27100 ng·h/mL
- Cmax [1, 8]: 914 ± 296 ng/mL
- AUC [1, 8]: 15100 ng·h/mL
- AUC(0-t) [1, 9]: 56000 ng·h/mL
- Cmax [1, 9]: 1910 ng/mL
- AUC [1, 9]: 36600 ng·h/mL
- AUC(0-t) [1, 10]: 40400 ng·h/mL
- Cmax [1, 10]: 1000 ng/mL
- AUC [1, 10]: 17400 ng·h/mL
- Absolute organ weight: Heart ([2]; PO 100 mg/kg/day 7 days, Day 7): 1.417 ± 0.443 g
- Absolute organ weight: Kidney ([2]; PO 100 mg/kg/day 7 days, Day 7): 2.656 ± 0.136 g
- Absolute organ weight: Liver ([2]; PO 100 mg/kg/day 7 days, Day 7): 13.915 ± 1.565 g
- Absolute organ weight: Spleen ([2]; PO 100 mg/kg/day 7 days, Day 7): 0.536 ± 0.112 g
- Absolute organ weight: Thymus ([2]; PO 100 mg/kg/day 7 days, Day 7): 0.419 ± 0.079 g
- Absolute organ weight: adrenal glands ([2]; PO 100 mg/kg/day 7 days, Day 7): 0.056 ± 0.012 g
- Absolute organ weight: Heart [2, 11]: 1.139 ± 0.079 g
- Absolute organ weight: Kidney [2, 11]: 2.65 ± 0.021 g
- Absolute organ weight: Liver [2, 11]: 11.06 ± 0.639 g
- Absolute organ weight: Spleen [2, 11]: 0.538 ± 0.05 g
- Absolute organ weight: Thymus [2, 11]: 0.319 ± 0.039 g
- Absolute organ weight: adrenal glands [2, 11]: 0.084 ± 0.059 g
- Absolute organ weight: Heart ([2]; PO 300 mg/kg/day 7 days, Day 7): 1.369 ± 0.173 g
- Absolute organ weight: Kidney ([2]; PO 300 mg/kg/day 7 days, Day 7): 2.966 ± 0.426 g
- Absolute organ weight: Liver ([2]; PO 300 mg/kg/day 7 days, Day 7): 13.69 ± 1.088 g
- Absolute organ weight: Spleen ([2]; PO 300 mg/kg/day 7 days, Day 7): 0.558 ± 0.035 g
- Absolute organ weight: Thymus ([2]; PO 300 mg/kg/day 7 days, Day 7): 0.377 ± 0.079 g
- Absolute organ weight: adrenal glands ([2]; PO 300 mg/kg/day 7 days, Day 7): 0.058 ± 0.022 g
- Absolute organ weight: Heart [2, 12]: 1.252 ± 0.229 g
- Absolute organ weight: Kidney [2, 12]: 2.748 ± 0.366 g
- Absolute organ weight: Liver [2, 12]: 12.08 ± 0.721 g
- Absolute organ weight: Spleen [2, 12]: 0.629 ± 0.088 g
- Absolute organ weight: Thymus [2, 12]: 0.314 ± 0.042 g
- Absolute organ weight: adrenal glands [2, 12]: 0.06 ± 0.016 g
- Absolute organ weight: Heart ([2]; PO 600 mg/kg/day 7 days, Day 7): 1.269 ± 0.209 g
- Absolute organ weight: Kidney ([2]; PO 600 mg/kg/day 7 days, Day 7): 2.661 ± 0.129 g
- Absolute organ weight: Liver ([2]; PO 600 mg/kg/day 7 days, Day 7): 13.396 ± 2.201 g
- Absolute organ weight: Spleen ([2]; PO 600 mg/kg/day 7 days, Day 7): 0.509 ± 0.093 g
- Absolute organ weight: Thymus ([2]; PO 600 mg/kg/day 7 days, Day 7): 0.319 ± 0.054 g
- Absolute organ weight: adrenal glands ([2]; PO 600 mg/kg/day 7 days, Day 7): 0.058 ± 0.001 g
- Absolute organ weight: Heart [2, 13]: 1.242 ± 0.08 g
- Absolute organ weight: Kidney [2, 13]: 2.759 ± 0.179 g
- Absolute organ weight: Liver [2, 13]: 12.382 ± 0.877 g
- Absolute organ weight: Spleen [2, 13]: 0.594 ± 0.066 g
- Absolute organ weight: Thymus [2, 13]: 0.394 ± 0.041 g
- Absolute organ weight: adrenal glands [2, 13]: 0.07 ± 0.027 g
- Absolute organ weight: Heart [2, 14]: 1.259 ± 0.118 g
- Absolute organ weight: Kidney [2, 14]: 3.022 ± 0.127 g
- Absolute organ weight: Liver [2, 14]: 13.349 ± 1.256 g
- Absolute organ weight: Spleen [2, 14]: 0.388 ± 0.035 g
- Absolute organ weight: Thymus [2, 14]: 0.121 ± 0.021 g
- Absolute organ weight: adrenal glands [2, 14]: 0.068 ± 0.012 g
- Absolute organ weight: Heart [2, 15]: 1.306 ± 0.066 g
- Absolute organ weight: Kidney [2, 15]: 2.763 ± 0.229 g
- Absolute organ weight: Liver [2, 15]: 11.072 ± 0.774 g
- Absolute organ weight: Spleen [2, 15]: 0.506 ± 0.023 g
- Absolute organ weight: Thymus [2, 15]: 0.355 ± 0.119 g
- Absolute organ weight: adrenal glands [2, 15]: 0.062 ± 0.009 g
- viability at 10 µM (CWR22Rv1 cell): 1.71%

Reference: paper PMC12661400, “Oral bioavailable ITRI-148 degrades androgen receptor variants and overcomes antiandrogen resistance in advanced prostate cancer” (Neoplasia (New York, N.Y.), 2025)
